Results as given in ChEMBL document CHEMBL3217727, “Berberine azoles as antimicrobial agents: synthesis, biological evaluation and their interactions with human serum albumin” (Medchemcomm, 2013).
≈ marks a conversion by molar mass, not a printed value.

Assays:
[1] = tested on: Candida albicans; assay: Antimicrobial activity against Candida albicans ATCC 90029 after 24 hrs by microbroth dilution method; format: functional; conditions: ATCC 90029, 24 h
[2] = tested on: Saccharomyces cerevisiae; assay: Antimicrobial activity against Saccharomyces cerevisiae ATCC 9763 after 24 hrs by microbroth dilution method; format: functional; conditions: ATCC 9763, 24 h
[3] = tested on: Candida; assay: Antimicrobial activity against Candida mycoderma after 24 hrs by microbroth dilution method; format: functional
[4] = tested on: Bacillus spizizenii; assay: Antimicrobial activity against Bacillus subtilis ATCC 6633 after 24 hrs by microbroth dilution method; format: functional; conditions: ATCC 6633, 24 h
[5] = tested on: Micrococcus luteus; assay: Antimicrobial activity against Micrococcus luteus ATCC 4698 after 24 hrs by microbroth dilution method; format: functional; conditions: NCTC 2665, 24 h
[6] = tested on: Cyberlindnera jadinii; assay: Antimicrobial activity against Candida utilis ATCC 9950 after 24 hrs by microbroth dilution method; format: functional; conditions: Williopsis jadinii, ATCC 9950, 24 h
[7] = tested on: Staphylococcus aureus; assay: Antimicrobial activity against Staphylococcus aureus ATCC 25923 after 24 hrs by microbroth dilution method; format: functional; conditions: ATCC 25923, 24 h
[8] = tested on: Proteus vulgaris; assay: Antimicrobial activity against Proteus vulgaris ATCC 8427 after 24 hrs by microbroth dilution method; format: functional; conditions: ATCC 8427, 24 h
[9] = tested on: Staphylococcus aureus; assay: Antimicrobial activity against methicillin-resistant Staphylococcus aureus N315 after 24 hrs by microbroth dilution method; format: functional; conditions: N315, 24 h
[10] = tested on: Shigella dysenteriae; assay: Antimicrobial activity against Shigella dysenteriae ATCC 51252 after 24 hrs by microbroth dilution method; format: functional; conditions: ATCC 51252, 24 h
[11] = tested on: Escherichia coli; assay: Antimicrobial activity against Escherichia coli […] after 24 hrs by microbroth dilution method; format: functional
[12] = tested on: Pseudomonas aeruginosa; assay: Antimicrobial activity against Pseudomonas aeruginosa ATCC 27853 after 24 hrs by microbroth dilution method; format: functional; conditions: ATCC 27853, 24 h
[13] = tested on: Proteus vulgaris; assay: Ratio of berberine MIC to compound MIC for Proteus vulgaris ATCC 8427; format: functional
[14] = tested on: Proteus vulgaris; assay: Ratio of chloromycin MIC to compound MIC for Proteus vulgaris ATCC 8427; format: functional
[15] = tested on: Proteus vulgaris; assay: Ratio of norfloxacin MIC to compound MIC for Proteus vulgaris ATCC 8427; format: functional
[16] = biological target: Albumin (Homo sapiens, UniProt P02768); assay: Binding affinity to human serum albumin at 0.2 to 1.8 10^-5 mol/L at pH 7.4 at 294 K by UV-vis spectroscopic analysis; format: ADME; conditions: isolated protein
Chain of Albumin (P02768 whole entry): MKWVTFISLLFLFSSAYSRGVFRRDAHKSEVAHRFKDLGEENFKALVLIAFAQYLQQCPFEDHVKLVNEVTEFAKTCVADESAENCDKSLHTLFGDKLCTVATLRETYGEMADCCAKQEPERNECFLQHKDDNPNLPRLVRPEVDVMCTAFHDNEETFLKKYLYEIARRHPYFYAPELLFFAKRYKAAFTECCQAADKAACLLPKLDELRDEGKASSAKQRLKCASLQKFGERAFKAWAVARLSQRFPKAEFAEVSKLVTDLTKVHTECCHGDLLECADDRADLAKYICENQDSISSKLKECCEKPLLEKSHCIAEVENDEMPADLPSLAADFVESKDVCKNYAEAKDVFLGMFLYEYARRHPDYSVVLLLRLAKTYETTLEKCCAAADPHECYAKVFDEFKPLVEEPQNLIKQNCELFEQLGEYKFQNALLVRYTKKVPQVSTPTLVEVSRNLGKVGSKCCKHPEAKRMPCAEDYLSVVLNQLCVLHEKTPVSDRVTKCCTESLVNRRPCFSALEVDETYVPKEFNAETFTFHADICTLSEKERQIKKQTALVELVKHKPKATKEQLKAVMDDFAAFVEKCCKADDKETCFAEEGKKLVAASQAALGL

| SMILES | MIC80 [1] | MIC80 [2] | MIC80 [3] | MIC [4] | MIC [5] | MIC80 [6] | MIC [7] | MIC [8] | MIC [9] | MIC [10] | MIC [11] | MIC [12] | Ratio [13] | Ratio [14] | Ratio [15] | Activity [16] |
| --- | --- | --- | --- | --- | --- | --- | --- | --- | --- | --- | --- | --- | --- | --- | --- | --- |
| COc1ccc2cc3[n+](cc2c1OCCN(CCn1cncn1)Cc1ccc(Cl)cc1Cl)CCc1cc2c(cc1-3)OCO2.[Cl-] | 4 µg/mL | 16 µg/mL | 4 µg/mL | 8 µg/mL | 16 µg/mL | 16 µg/mL |  |  |  |  |  |  |  |  |  |  |
| COc1ccc2cc3[n+](cc2c1OCCN(CCSc1nc2ccccc2[nH]1)Cc1ccc(F)cc1F)CCc1cc2c(cc1-3)OCO2.[Cl-] | 64 µg/mL | 64 µg/mL | 128 µg/mL | 64 µg/mL | 128 µg/mL | 64 µg/mL | 32 µg/mL | 64 µg/mL | 64 µg/mL | 128 µg/mL | 32 µg/mL | 64 µg/mL |  |  |  |  |
| Clc1ccc(CN(CCBr)CCn2cncn2)cc1Cl | 32 µg/mL (≈ 84.6 µM) | 128 µg/mL (≈ 339 µM) | 256 µg/mL (≈ 677 µM) | 256 µg/mL (≈ 677 µM) | 32 µg/mL (≈ 84.6 µM) | 64 µg/mL (≈ 169 µM) |  |  |  |  |  |  |  |  |  |  |
| COc1ccc2cc3[n+](cc2c1OCCN(CCn1cncn1)Cc1ccc(F)cc1F)CCc1cc2c(cc1-3)OCO2.[Cl-] | 4 µg/mL | 32 µg/mL | 2 µg/mL | 8 µg/mL | 8 µg/mL | 8 µg/mL |  |  |  |  |  |  | 64 | 16 | 4 | Active |
| Fc1cccc(CN(CCBr)CCn2cncn2)c1 | 32 µg/mL (≈ 97.8 µM) | 128 µg/mL (≈ 391 µM) | 256 µg/mL (≈ 782 µM) | 256 µg/mL (≈ 782 µM) | 64 µg/mL (≈ 196 µM) | 256 µg/mL (≈ 782 µM) |  |  |  |  |  |  |  |  |  |  |
| COc1ccc2cc3[n+](cc2c1OCCN(CCn1cncn1)Cc1ccccc1F)CCc1cc2c(cc1-3)OCO2.[Cl-] | 4 µg/mL | 16 µg/mL | 2 µg/mL | 8 µg/mL | 8 µg/mL | 16 µg/mL |  |  |  |  |  |  |  |  |  |  |
| Fc1ccc(CN(CCBr)CCn2nnc3ccccc32)c(F)c1 | > 512 µg/mL | 256 µg/mL (≈ 648 µM) | > 512 µg/mL | 256 µg/mL (≈ 648 µM) | 256 µg/mL (≈ 648 µM) | 256 µg/mL (≈ 648 µM) | 256 µg/mL (≈ 648 µM) | 256 µg/mL (≈ 648 µM) | 128 µg/mL (≈ 324 µM) | 64 µg/mL (≈ 162 µM) | 128 µg/mL (≈ 324 µM) | 128 µg/mL (≈ 324 µM) |  |  |  |  |
| COc1ccc2cc3[n+](cc2c1OCCN(CCn1cncn1)Cc1ccc(Cl)cc1)CCc1cc2c(cc1-3)OCO2.[Cl-] | 32 µg/mL | 32 µg/mL | 32 µg/mL | 8 µg/mL | 16 µg/mL | 16 µg/mL |  |  |  |  |  |  |  |  |  |  |
| COc1ccc2cc3[n+](cc2c1OCCN(CCn1cncn1)Cc1cccc(F)c1)CCc1cc2c(cc1-3)OCO2.[Cl-] | 4 µg/mL | 16 µg/mL | 4 µg/mL | 8 µg/mL | 16 µg/mL | 8 µg/mL |  |  |  |  |  |  |  |  |  |  |
| Fc1ccc(CN(CCBr)CCn2cncn2)c(F)c1 | 32 µg/mL (≈ 92.7 µM) | 128 µg/mL (≈ 371 µM) | 256 µg/mL (≈ 742 µM) | 256 µg/mL (≈ 742 µM) | 32 µg/mL (≈ 92.7 µM) | 256 µg/mL (≈ 742 µM) |  |  |  |  |  |  |  |  |  |  |
| OC(Cn1cncn1)(Cn1cncn1)c1ccc(F)cc1F [FLUCONAZOLE] | 1 µg/mL (≈ 3.27 µM) | 16 µg/mL (≈ 52.2 µM) | 4 µg/mL (≈ 13.1 µM) |  |  | 8 µg/mL (≈ 26.1 µM) |  |  |  |  |  |  |  |  |  |  |
| O=C(N[C@H](CO)[C@H](O)c1ccc([N+](=O)[O-])cc1)C(Cl)Cl [CHLORAMPHENICOL] |  |  |  | 32 µg/mL (≈ 99 µM) | 8 µg/mL (≈ 24.8 µM) |  |  |  |  |  |  |  |  |  |  |  |
| Cc1cc2ncn(CCN(CCBr)Cc3ccc(F)cc3F)c2cc1C | 128 µg/mL (≈ 303 µM) | 256 µg/mL (≈ 606 µM) | 64 µg/mL (≈ 152 µM) | 32 µg/mL (≈ 75.8 µM) | 64 µg/mL (≈ 152 µM) | 128 µg/mL (≈ 303 µM) | 64 µg/mL (≈ 152 µM) | 128 µg/mL (≈ 303 µM) | 128 µg/mL (≈ 303 µM) | 16 µg/mL (≈ 37.9 µM) | 128 µg/mL (≈ 303 µM) | 64 µg/mL (≈ 152 µM) |  |  |  |  |
| COc1ccc2cc3[n+](cc2c1OCCN(CCn1nnc2ccccc21)Cc1ccc(F)cc1F)CCc1cc2c(cc1-3)OCO2.[Cl-] | > 512 µg/mL | 16 µg/mL | > 512 µg/mL | 128 µg/mL | 128 µg/mL | 32 µg/mL | 64 µg/mL | 128 µg/mL | 64 µg/mL | 32 µg/mL | 128 µg/mL | 64 µg/mL |  |  |  |  |
| COc1ccc2cc3[n+](cc2c1OCCN(CCn1cncn1)Cc1ccccc1Cl)CCc1cc2c(cc1-3)OCO2.[Cl-] | 16 µg/mL | 16 µg/mL | 8 µg/mL | 8 µg/mL | 32 µg/mL | 32 µg/mL |  |  |  |  |  |  |  |  |  |  |
